From PubChem BioAssay (NCI)
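Test compounds were applied to cells in 96-well plates for 48 hours at 5 doses. GI50: concentration for 50% inhibition of growth. The concentration for full growth arrest is given as TGI.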

Experiments:
Experiment in all cases: NCI anticancer screen, dose series, 48 h
A549 NSCLC = system: A549 NSCLC
UACC-257 melanoma = system: UACC-257 melanoma
DU-145 prostate = system: DU-145 prostate
RXF 393 renal = system: RXF 393 renal
SN12C renal = system: SN12C renal
TK-10 renal = system: TK-10 renal
LOX IMVI melanoma = system: LOX IMVI melanoma
SW-620 colon = system: SW-620 colon
U251 CNS = system: U251 CNS
OVCAR-8 ovarian = system: OVCAR-8 ovarian
OVCAR-3 ovarian = system: OVCAR-3 ovarian
CCRF-CEM leukemia = system: CCRF-CEM leukemia
SNB-75 CNS = system: SNB-75 CNS
786-0 renal = system: 786-0 renal
IGROV1 ovarian = system: IGROV1 ovarian
CAKI-1 renal = system: CAKI-1 renal
K-562 leukemia = system: K-562 leukemia
MCF7 breast = system: MCF7 breast
HCT-15 colon = system: HCT-15 colon
MDA-MB-231 breast = system: MDA-MB-231 breast
MOLT-4 leukemia = system: MOLT-4 leukemia
HS 578T breast = system: HS 578T breast
BT-549 breast = system: BT-549 breast
M14 melanoma = system: M14 melanoma
ACHN renal = system: ACHN renal
HT29 colon = system: HT29 colon
NCI-H226 lung = system: NCI-H226 lung
A498 renal = system: A498 renal
EKVX NSCLC = system: EKVX NSCLC
HL-60(TB) leukemia = system: HL-60(TB) leukemia
NCI/ADR-RES ovarian = system: NCI/ADR-RES ovarian
UACC-62 melanoma = system: UACC-62 melanoma
SK-MEL-2 melanoma = system: SK-MEL-2 melanoma
NCI-H522 lung = system: NCI-H522 lung
SF-539 CNS = system: SF-539 CNS
NCI-H23 lung = system: NCI-H23 lung
SK-MEL-28 melanoma = system: SK-MEL-28 melanoma
SNB-19 CNS = system: SNB-19 CNS
HCC-2998 colon = system: HCC-2998 colon
SF-268 CNS = system: SF-268 CNS
KM12 colon = system: KM12 colon
OVCAR-5 ovarian = system: OVCAR-5 ovarian
HOP-92 NSCLC = system: HOP-92 NSCLC
HCT-116 colon = system: HCT-116 colon
MDA-MB-435 = system: MDA-MB-435
HOP-62 NSCLC = system: HOP-62 NSCLC
SK-MEL-5 melanoma = system: SK-MEL-5 melanoma
PC-3 prostate = system: PC-3 prostate
T-47D breast = system: T-47D breast
MALME-3M melanoma = system: MALME-3M melanoma
RPMI-8226 leukemia = system: RPMI-8226 leukemia
MDA-MB-468 breast = system: MDA-MB-468 breast
OVCAR-4 ovarian = system: OVCAR-4 ovarian
SF-295 CNS = system: SF-295 CNS

Molecule `Cc1ccc2c(c1)nc(-c1ccccc1)n2CC(=O)N=Nc1c(O)[nH]c2ccc(Br)cc12` has a GI50 (A549 NSCLC) of 1.9 µM, a TGI (A549 NSCLC) of 4.03 µM and a GI50 (UACC-257 melanoma) of 1.73 µM. The TGI (UACC-257 melanoma) was 3.81 µM, the GI50 (DU-145 prostate) was 2.29 µM and the TGI (DU-145 prostate) was 4.85 µM. For the same molecule, the GI50 (RXF 393 renal) was 0.773 µM, the TGI (RXF 393 renal) was 2.22 µM and the GI50 (SN12C renal) was 1.78 µM. It also gave a TGI (SN12C renal) of 4.16 µM, a GI50 (TK-10 renal) of 3.12 µM and a TGI (TK-10 renal) of 7.14 µM. For the same molecule, the GI50 (LOX IMVI melanoma) was 1.55 µM, the TGI (LOX IMVI melanoma) was 2.91 µM and the GI50 (SW-620 colon) was 2.2 µM. The TGI (SW-620 colon) was 5.47 µM, the GI50 (U251 CNS) was 1.76 µM and the TGI (U251 CNS) was 3.43 µM. The GI50 (OVCAR-8 ovarian) was 1.89 µM, the TGI (OVCAR-8 ovarian) was 3.8 µM and the GI50 (OVCAR-3 ovarian) was 1.91 µM. The TGI (OVCAR-3 ovarian) was 3.45 µM, the GI50 (CCRF-CEM leukemia) was 2.09 µM and the TGI (CCRF-CEM leukemia) was 4.96 µM. It also gave a GI50 (SNB-75 CNS) of 1.1 µM, a TGI (SNB-75 CNS) of 3.06 µM and a GI50 (786-0 renal) of 1.73 µM. It also gave a TGI (786-0 renal) of 3.16 µM, a GI50 (IGROV1 ovarian) of 1.71 µM and a TGI (IGROV1 ovarian) of 3.29 µM. The GI50 (CAKI-1 renal) was 1.54 µM, the TGI (CAKI-1 renal) was 3.62 µM and the GI50 (K-562 leukemia) was 3.15 µM. For the same molecule, the TGI (K-562 leukemia) was greater than 100 µM, the GI50 (MCF7 breast) was 1.54 µM and the TGI (MCF7 breast) was 3.16 µM. The GI50 (HCT-15 colon) was 1.69 µM, the TGI (HCT-15 colon) was 3.18 µM and the GI50 (MDA-MB-231 breast) was 1.89 µM. For the same molecule, the TGI (MDA-MB-231 breast) was 4.25 µM, the GI50 (MOLT-4 leukemia) was 2.22 µM and the TGI (MOLT-4 leukemia) was 5.62 µM. It also gave a GI50 (HS 578T breast) of 1.86 µM, a TGI (HS 578T breast) of 5.62 µM and a GI50 (BT-549 breast) of 1.85 µM. For the same molecule, the TGI (BT-549 breast) was 3.53 µM, the GI50 (M14 melanoma) was 1.69 µM and the TGI (M14 melanoma) was 3.35 µM. It also gave a GI50 (ACHN renal) of 1.59 µM, a TGI (ACHN renal) of 2.94 µM and a GI50 (HT29 colon) of 1.78 µM. For the same molecule, the TGI (HT29 colon) was 3.45 µM, the GI50 (NCI-H226 lung) was 1.47 µM and the TGI (NCI-H226 lung) was 2.97 µM. It also gave a GI50 (A498 renal) of 2 µM, a TGI (A498 renal) of 3.99 µM and a GI50 (EKVX NSCLC) of 1.38 µM. For the same molecule, the TGI (EKVX NSCLC) was 2.92 µM, the GI50 (HL-60(TB) leukemia) was 3.16 µM and the TGI (HL-60(TB) leukemia) was greater than 100 µM. It also gave a GI50 (NCI/ADR-RES ovarian) of 1.7 µM, a TGI (NCI/ADR-RES ovarian) of 3.27 µM and a GI50 (UACC-62 melanoma) of 1.44 µM. It also gave a TGI (UACC-62 melanoma) of 2.8 µM, a GI50 (SK-MEL-2 melanoma) of 1.81 µM and a TGI (SK-MEL-2 melanoma) of 3.64 µM. For the same molecule, the GI50 (NCI-H522 lung) was 1.87 µM, the TGI (NCI-H522 lung) was 4.1 µM and the GI50 (SF-539 CNS) was 1.63 µM. It also gave a TGI (SF-539 CNS) of 3.02 µM, a GI50 (NCI-H23 lung) of 1.77 µM and a TGI (NCI-H23 lung) of 3.36 µM. For the same molecule, the GI50 (SK-MEL-28 melanoma) was 1.65 µM, the TGI (SK-MEL-28 melanoma) was 3.06 µM and the GI50 (SNB-19 CNS) was 1.95 µM. The TGI (SNB-19 CNS) was 4.28 µM, the GI50 (HCC-2998 colon) was 1.85 µM and the TGI (HCC-2998 colon) was 3.44 µM. For the same molecule, the GI50 (SF-268 CNS) was 2.44 µM, the TGI (SF-268 CNS) was 8.56 µM and the GI50 (KM12 colon) was 2.06 µM. The TGI (KM12 colon) was 4.89 µM, the GI50 (OVCAR-5 ovarian) was 1.83 µM and the TGI (OVCAR-5 ovarian) was 4.28 µM. It also gave a GI50 (HOP-92 NSCLC) of 1.22 µM, a TGI (HOP-92 NSCLC) of 2.64 µM and a GI50 (HCT-116 colon) of 1.74 µM. For the same molecule, the TGI (HCT-116 colon) was 3.34 µM, the GI50 (MDA-MB-435) was 1.68 µM and the TGI (MDA-MB-435) was 3.77 µM. It also gave a GI50 (HOP-62 NSCLC) of 1.75 µM, a TGI (HOP-62 NSCLC) of 3.39 µM and a GI50 (SK-MEL-5 melanoma) of 1.74 µM. It also gave a TGI (SK-MEL-5 melanoma) of 3.58 µM, a GI50 (PC-3 prostate) of 1.56 µM and a TGI (PC-3 prostate) of 3.16 µM. The GI50 (T-47D breast) was 1.82 µM, the TGI (T-47D breast) was 4.4 µM and the GI50 (MALME-3M melanoma) was 1.63 µM. For the same molecule, the TGI (MALME-3M melanoma) was 3.1 µM, the GI50 (RPMI-8226 leukemia) was 2.18 µM and the TGI (RPMI-8226 leukemia) was 5.46 µM. It also gave a GI50 (MDA-MB-468 breast) of 1.75 µM, a TGI (MDA-MB-468 breast) of 3.18 µM and a GI50 (OVCAR-4 ovarian) of 1.83 µM. The TGI (OVCAR-4 ovarian) was 3.81 µM, the GI50 (SF-295 CNS) was 1.54 µM and the TGI (SF-295 CNS) was 2.93 µM.
